Experimental data published in PubChem BioAssay (NCI).
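48-hour exposure; five concentrations; linearly interpolated endpoints. At the GI50, growth is halved. TGI denotes the concentration required for complete inhibition of growth.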

Columns and labels:
Assay in all cases: NCI anticancer screen, dose series, 48 h
ACHN renal = test system: ACHN renal
TK-10 renal = test system: TK-10 renal
M14 melanoma = test system: M14 melanoma
CAKI-1 renal = test system: CAKI-1 renal
IGROV1 ovarian = test system: IGROV1 ovarian
OVCAR-3 ovarian = test system: OVCAR-3 ovarian
K-562 leukemia = test system: K-562 leukemia
HCT-116 colon = test system: HCT-116 colon
DU-145 prostate = test system: DU-145 prostate
MCF7 breast = test system: MCF7 breast
PC-3 prostate = test system: PC-3 prostate
OVCAR-4 ovarian = test system: OVCAR-4 ovarian
786-0 renal = test system: 786-0 renal
SK-OV-3 ovarian = test system: SK-OV-3 ovarian
HOP-62 NSCLC = test system: HOP-62 NSCLC
OVCAR-5 ovarian = test system: OVCAR-5 ovarian
MALME-3M melanoma = test system: MALME-3M melanoma
HCC-2998 colon = test system: HCC-2998 colon
NCI-H23 lung = test system: NCI-H23 lung
NCI-H226 lung = test system: NCI-H226 lung
SW-620 colon = test system: SW-620 colon
SK-MEL-5 melanoma = test system: SK-MEL-5 melanoma
T-47D breast = test system: T-47D breast
A498 renal = test system: A498 renal
HCT-15 colon = test system: HCT-15 colon
SF-295 CNS = test system: SF-295 CNS
NCI-H460 lung = test system: NCI-H460 lung
HL-60(TB) leukemia = test system: HL-60(TB) leukemia
SR leukemia = test system: SR leukemia
CCRF-CEM leukemia = test system: CCRF-CEM leukemia
U251 CNS = test system: U251 CNS
BT-549 breast = test system: BT-549 breast
MDA-MB-231 breast = test system: MDA-MB-231 breast
OVCAR-8 ovarian = test system: OVCAR-8 ovarian
HOP-92 NSCLC = test system: HOP-92 NSCLC
SF-539 CNS = test system: SF-539 CNS
NCI/ADR-RES ovarian = test system: NCI/ADR-RES ovarian
A549 NSCLC = test system: A549 NSCLC
SN12C renal = test system: SN12C renal
MDA-MB-435 = test system: MDA-MB-435
SK-MEL-28 melanoma = test system: SK-MEL-28 melanoma
UACC-257 melanoma = test system: UACC-257 melanoma
HT29 colon = test system: HT29 colon
SNB-19 CNS = test system: SNB-19 CNS
SF-268 CNS = test system: SF-268 CNS
HS 578T breast = test system: HS 578T breast
LOX IMVI melanoma = test system: LOX IMVI melanoma
UO-31 renal = test system: UO-31 renal
EKVX NSCLC = test system: EKVX NSCLC
UACC-62 melanoma = test system: UACC-62 melanoma
RXF 393 renal = test system: RXF 393 renal
KM12 colon = test system: KM12 colon
SK-MEL-2 melanoma = test system: SK-MEL-2 melanoma
COLO 205 colon = test system: COLO 205 colon
SNB-75 CNS = test system: SNB-75 CNS
NCI-H522 lung = test system: NCI-H522 lung

SMILES: O=C(c1cc(-c2cc3c(cc2C(=O)N2Cc4ccccc4C[C@H]2CN2CCOCC2)OCO3)n2c1CCCC2)N(c1ccccc1)c1ccc(O)cc1
- GI50 (ACHN renal): 9.36 µM
- TGI (ACHN renal): > 100 µM
- GI50 (TK-10 renal): 27.8 µM
- TGI (TK-10 renal): > 100 µM
- GI50 (M14 melanoma): 18.1 µM
- TGI (M14 melanoma): > 100 µM
- GI50 (CAKI-1 renal): 3.56 µM
- TGI (CAKI-1 renal): > 100 µM
- GI50 (IGROV1 ovarian): 5.97 µM
- TGI (IGROV1 ovarian): > 100 µM
- GI50 (OVCAR-3 ovarian): 5.55 µM
- TGI (OVCAR-3 ovarian): > 100 µM
- GI50 (K-562 leukemia): 3.88 µM
- TGI (K-562 leukemia): > 100 µM
- GI50 (HCT-116 colon): 13.6 µM
- TGI (HCT-116 colon): > 100 µM
- GI50 (DU-145 prostate): 18 µM
- TGI (DU-145 prostate): > 100 µM
- GI50 (MCF7 breast): 3.52 µM
- TGI (MCF7 breast): > 100 µM
- GI50 (PC-3 prostate): 2.99 µM
- TGI (PC-3 prostate): > 100 µM
- GI50 (OVCAR-4 ovarian): 8.35 µM
- TGI (OVCAR-4 ovarian): > 100 µM
- GI50 (786-0 renal): 45.9 µM
- TGI (786-0 renal): > 100 µM
- GI50 (SK-OV-3 ovarian): 12.7 µM
- TGI (SK-OV-3 ovarian): > 100 µM
- GI50 (HOP-62 NSCLC): 64.4 µM
- TGI (HOP-62 NSCLC): > 100 µM
- GI50 (OVCAR-5 ovarian): 5.87 µM
- TGI (OVCAR-5 ovarian): > 100 µM
- GI50 (MALME-3M melanoma): 15.6 µM
- TGI (MALME-3M melanoma): > 100 µM
- GI50 (HCC-2998 colon): 4.93 µM
- TGI (HCC-2998 colon): 61.3 µM
- GI50 (NCI-H23 lung): 34.8 µM
- TGI (NCI-H23 lung): > 100 µM
- GI50 (NCI-H226 lung): 10.1 µM
- TGI (NCI-H226 lung): 56 µM
- GI50 (SW-620 colon): 17.3 µM
- TGI (SW-620 colon): > 100 µM
- GI50 (SK-MEL-5 melanoma): 3.78 µM
- TGI (SK-MEL-5 melanoma): 18.6 µM
- GI50 (T-47D breast): 4.95 µM
- TGI (T-47D breast): > 100 µM
- GI50 (A498 renal): 2.71 µM
- TGI (A498 renal): 15.3 µM
- GI50 (HCT-15 colon): 3.54 µM
- TGI (HCT-15 colon): > 100 µM
- GI50 (SF-295 CNS): 5.14 µM
- TGI (SF-295 CNS): > 100 µM
- GI50 (NCI-H460 lung): 7.09 µM
- TGI (NCI-H460 lung): > 100 µM
- GI50 (HL-60(TB) leukemia): 2.62 µM
- TGI (HL-60(TB) leukemia): 7.16 µM
- GI50 (SR leukemia): 3.09 µM
- TGI (SR leukemia): > 100 µM
- GI50 (CCRF-CEM leukemia): 3.34 µM
- TGI (CCRF-CEM leukemia): > 100 µM
- GI50 (U251 CNS): 6.99 µM
- TGI (U251 CNS): > 100 µM
- GI50 (BT-549 breast): 36.4 µM
- TGI (BT-549 breast): > 100 µM
- GI50 (MDA-MB-231 breast): 10.9 µM
- TGI (MDA-MB-231 breast): 53.3 µM
- GI50 (OVCAR-8 ovarian): 10.6 µM
- TGI (OVCAR-8 ovarian): > 100 µM
- GI50 (HOP-92 NSCLC): 2.72 µM
- TGI (HOP-92 NSCLC): 15 µM
- GI50 (SF-539 CNS): 15.7 µM
- TGI (SF-539 CNS): > 100 µM
- GI50 (NCI/ADR-RES ovarian): 6.5 µM
- TGI (NCI/ADR-RES ovarian): > 100 µM
- GI50 (A549 NSCLC): 5.15 µM
- TGI (A549 NSCLC): > 100 µM
- GI50 (SN12C renal): 8.6 µM
- TGI (SN12C renal): > 100 µM
- GI50 (MDA-MB-435): 8.55 µM
- TGI (MDA-MB-435): 98.9 µM
- GI50 (SK-MEL-28 melanoma): 11.4 µM
- TGI (SK-MEL-28 melanoma): > 100 µM
- GI50 (UACC-257 melanoma): 18.9 µM
- TGI (UACC-257 melanoma): > 100 µM
- GI50 (HT29 colon): 5.14 µM
- TGI (HT29 colon): > 100 µM
- GI50 (SNB-19 CNS): 7.13 µM
- TGI (SNB-19 CNS): > 100 µM
- GI50 (SF-268 CNS): 7.65 µM
- TGI (SF-268 CNS): > 100 µM
- GI50 (HS 578T breast): 6.05 µM
- TGI (HS 578T breast): > 100 µM
- GI50 (LOX IMVI melanoma): 7.09 µM
- TGI (LOX IMVI melanoma): > 100 µM
- GI50 (UO-31 renal): 4.28 µM
- TGI (UO-31 renal): > 100 µM
- GI50 (EKVX NSCLC): 5.31 µM
- TGI (EKVX NSCLC): > 100 µM
- GI50 (UACC-62 melanoma): 8.62 µM
- TGI (UACC-62 melanoma): > 100 µM
- GI50 (RXF 393 renal): 2.77 µM
- TGI (RXF 393 renal): 17.5 µM
- GI50 (KM12 colon): 12.9 µM
- TGI (KM12 colon): > 100 µM
- GI50 (SK-MEL-2 melanoma): 10.2 µM
- TGI (SK-MEL-2 melanoma): 54.4 µM
- GI50 (COLO 205 colon): 6.71 µM
- TGI (COLO 205 colon): > 100 µM
- GI50 (SNB-75 CNS): 3.61 µM
- TGI (SNB-75 CNS): > 100 µM
- GI50 (NCI-H522 lung): 22.9 µM
- TGI (NCI-H522 lung): > 100 µM
